From patent US20250295815A1, “PORPHYRIN-HYDROPORPHYRIN COMPOUNDS, COMPOSITIONS COMPRISING THE SAME AND METHODS OF USE THEREOF” (North Carolina State University, priority 2021, published 2025)

Columns and labels:
Assay type in all cases: physicochemical
[1] = Dyad photophysical properties in toluene, excited at 405 nm; parameters: ext coeff (abs max B) / brightness (abs max): unit not given here; settings: for ext coeff (405 nm) / brightness (405 nm): at 405 nm; for ext coeff (405 nm) / FWHM / QY (x405) / abs max B / abs max Qx / abs max Qy / ext coeff (abs max B) / em max: room temperature; for ext coeff (405 nm): in M-1 cm-1 (unit assumed); for FWHM: emission peak; for FWHM / QY (x405) / em max: excited at 405 nm; for QY (x405): fluorescence quantum yield; for brightness (405 nm) / brightness (abs max): molar absorption coefficient x fluorescence quantum yield; for brightness (405 nm): in M⁻¹cm⁻¹; for brightness (abs max): at abs max
Procedure: The photophysical properties of samples were tested in toluene at room temperature and excited at 405 nm.

[2] = Fluorescence emission spectra in toluene (FIG. 5-8); settings: for Brightness (molar absorption coefficient×fluorescence quantum yield): in M⁻¹cm⁻¹; for residual porphyrin emission in fluorescence spectrum: toluene, room temperature, FIG. 5, FIG. 6
Procedure: Emission spectra were collected in toluene at room temperature. […] P5-C3 contains a more rigid linker between chlorin and porphyrin than in P3-C1, which results in greater spatial separation of the two components and lower energy transfer.
Brightness (molar absorption coefficient×fluorescence quantum yield): 84,700 (P3-C1), 13,900 (P5-C3).
Emission spectra were collected using 0.5 uM solutions in toluene. Brightness (molar absorption coefficient×fluorescence quantum yield): 19,900 (P11-BC3 meso), 45,100 (P11-BC1 beta).

[3] = Brightness of hydroporphyrin monomers vs. porphyrin-hydroporphyrin dyads at 405 nm excitation
Procedure: Brightness was calculated using an excitation wavelength of 405 nm for a hydroporphyrin monomer having an emission wavelength of approximately 660, 680, 715, or 800 nm and for a fluorescent compound including a porphyrin and a hydroporphyrin structurally similar to the hydroporphyrin monomer. Brightness was calculated as the product of the molar absorption coefficient at 405 nm and the fluorescence quantum yield in toluene at room temperature. Table 3 provides the emission wavelength of the hydroporphyrin monomer and the corresponding dyad, the brightness of the hydroporphyrin monomer excited at 405 nm, the brightness of the dyad excited at 405 nm, and the fold change in brightness of the hydroporphyrin monomer compared to the brightness of the dyad.

[4] = FIG. 7, same sample concentration

ext coeff (405 nm) [1] | QY (x405) [1] | brightness (405 nm) [1] | brightness (abs max) [1] | abs max B [1] | abs max Qx [1] | abs max Qy [1] | ext coeff (abs max B) [1] | em max [1] | Brightness (molar absorption coefficient×fluorescence quantum yield) [2, 4] | residual porphyrin emission in fluorescence spectrum [2] | Compound | FWHM [1] | fold change ([3]; brightness of dyad vs. corresponding hydroporphyrin monomer, 405 nm) | FWHM ([3]; emission peak narrowness) | QY (x405) ([3]; fluorescence quantum yield in toluene at room temperature) | ext coeff (405 nm) ([3]; molar absorption coefficient at 405 nm, in M-1 cm-1 (unit assumed)) | brightness (405 nm) ([3]; product of molar absorption coefficient at 405 nm and fluorescence quantum yield, toluene, room temperature, in M⁻¹cm⁻¹) | abs max B ([3]; toluene, room temperature) | em max ([3]; toluene, room temperature) | Brightness (molar absorption coefficient×fluorescence quantum yield) ([2]; FIG. 8, 0.5 uM solutions in toluene, meso vs. beta linkage)
350,200 | 0.24 | 84,723 | 106,623 | 410 nm | 505 nm | 652 nm | 440,633 | 656 nm | 84,700 | no residual emission from the porphyrin | COC(=O)c1ccc(-c2c3nc(cc4[nH]c(cc5nc(cc6[nH]c2cc6-c2ccc(CNC(=O)c6ccc(-c7c8nc(cc9ccc([nH]9)c(-c9c(C)cc(C)cc9C)c9nc(cc%10ccc7[nH]%10)C=C9)C=C8)cc6)cc2)CC5(C)C)cc4-c2ccccc2)C=C3)cc1 [Dyad P3-C1] | 18 nm |  |  |  |  |  |  |  | 
171,800 | 0.08 | 13,934 | 17,413 | 409 nm | 504 nm | 657 nm | 214,700 | 659 nm | 13,900 | porphyrin emission is apparent | COC(=O)c1ccc(-c2c3nc(cc4ccc(cc5nc(cc6[nH]c2cc6C#Cc2ccc(CNC(=O)c6ccc(-c7c8nc(cc9ccc([nH]9)c(-c9c(C)cc(C)cc9C)c9nc(cc%10ccc7[nH]%10)C=C9)C=C8)cc6)cc2)CC5(C)C)[nH]4)C=C3)cc1 [Dyad P5-C3] |  |  |  |  |  |  |  |  | 

Compound | ext coeff (405 nm) [1] | QY (x405) [1] | brightness (405 nm) [1] | brightness (abs max) [1] | abs max B [1] | abs max Qx [1] | abs max Qy [1] | ext coeff (abs max B) [1] | em max [1] | Brightness (molar absorption coefficient×fluorescence quantum yield) [2, 4] | residual porphyrin emission in fluorescence spectrum [2] | FWHM [1] | fold change ([3]; brightness of dyad vs. corresponding hydroporphyrin monomer, 405 nm) | FWHM ([3]; emission peak narrowness) | QY (x405) ([3]; fluorescence quantum yield in toluene at room temperature) | ext coeff (405 nm) ([3]; molar absorption coefficient at 405 nm, in M-1 cm-1 (unit assumed)) | brightness (405 nm) ([3]; product of molar absorption coefficient at 405 nm and fluorescence quantum yield, toluene, room temperature, in M⁻¹cm⁻¹) | abs max B ([3]; toluene, room temperature) | em max ([3]; toluene, room temperature) | Brightness (molar absorption coefficient×fluorescence quantum yield) ([2]; FIG. 8, 0.5 uM solutions in toluene, meso vs. beta linkage)
COc1c2nc(cc3ccc([nH]3)c(-c3ccc(-c4c5nc(cc6ccc(cc7nc(cc8ccc4[nH]8)C=C7)[nH]6)C=C5)cc3)c3nc(cc4ccc1[nH]4)C(C)(C)C3)C(C)(C)C2 [Dyad P11-BC3] | 118,100 | 0.17 | 19,871 | 20,998 | 407 nm | 511 nm | 714 nm | 124,800 | 714 nm |  |  | 15 nm | 64.9 | 15 nm | 0.17 | 118,100 | 19,871 | 407 nm | 714 nm | 19,900
